Source: ChEMBL document CHEMBL1201862, “PubChem BioAssay data set” (2004)
Calls of active or inactive are those of the source. Rule as the data show it: actives have a measured IC50 and inactives only a lower limit.

Molecular target: Envelope glycoprotein gp160 (Human immunodeficiency virus 1, UniProt Q6QLK5)
Experiment: inhibitors of HIV fusion peptide binding, primary screen, biochemical, uHTS, fluorescence dequenching (AID 1986)

Chain of Envelope glycoprotein gp160 (Q6QLK5 whole entry, the tested form may be a part): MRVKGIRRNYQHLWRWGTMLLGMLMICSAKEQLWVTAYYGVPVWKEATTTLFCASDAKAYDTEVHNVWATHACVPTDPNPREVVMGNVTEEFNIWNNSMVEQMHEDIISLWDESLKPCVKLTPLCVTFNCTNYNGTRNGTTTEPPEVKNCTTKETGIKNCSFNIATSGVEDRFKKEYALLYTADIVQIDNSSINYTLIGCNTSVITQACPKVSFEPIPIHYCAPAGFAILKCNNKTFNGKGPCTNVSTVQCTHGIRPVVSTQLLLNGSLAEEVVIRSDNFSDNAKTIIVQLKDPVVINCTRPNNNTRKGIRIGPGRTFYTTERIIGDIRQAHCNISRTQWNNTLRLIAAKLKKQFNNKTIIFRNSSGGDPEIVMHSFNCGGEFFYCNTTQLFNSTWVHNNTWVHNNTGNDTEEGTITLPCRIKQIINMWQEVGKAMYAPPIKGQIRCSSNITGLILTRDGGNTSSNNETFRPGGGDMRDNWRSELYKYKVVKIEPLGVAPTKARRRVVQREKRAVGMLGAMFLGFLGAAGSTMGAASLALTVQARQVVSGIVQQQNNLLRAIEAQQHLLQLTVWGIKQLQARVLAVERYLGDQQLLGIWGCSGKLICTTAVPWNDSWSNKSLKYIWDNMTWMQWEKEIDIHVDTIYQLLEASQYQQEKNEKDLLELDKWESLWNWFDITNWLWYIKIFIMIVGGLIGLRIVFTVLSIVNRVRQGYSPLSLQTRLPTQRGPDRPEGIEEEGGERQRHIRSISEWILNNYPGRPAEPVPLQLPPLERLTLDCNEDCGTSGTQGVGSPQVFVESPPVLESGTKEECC

Row | Structure (SMILES) | IC50
1 | CCOc1cc(/C=C2/C(=N)N3C(=NC2=O)SN=C3S(C)(=O)=O)ccc1OS(=O)(=O)c1ccccc1 | 12.2 µM (active)
2 | O=C(O)c1cc(-c2ccc(/C=C3\NC(=O)N(c4ccc(Cl)cc4)C3=O)o2)ccc1Cl | 22.6 µM (active)
3 | O=C1NC(=S)N(c2ccc(F)cc2)C(=O)/C1=C\c1ccoc1 | 5.78 µM (active)
4 | Cc1cc(N2C(=O)C(O)=C(C(=O)c3cc4ccccc4o3)C2c2cccc(Br)c2)no1 (stereo not given) | 16.4 µM (active)
5 | O=c1cc(-c2ccccc2Cl)oc2c(NS(=O)(=O)c3cc(Cl)cc(Cl)c3O)ccc(O)c12 | 9.18 µM (active)
